“And” between values parts separate entries of the source, which are not always exact repeats. Equal values may be shown once. Read-outs that look alike come from different tables or passages of the source.
Legend:
OAT1 [1] = test: Uptake inhibitor investigation in HEK293 cells expressing transporter; format: in vitro ADME
BSEP = biological target: T1, BSEP (Homo sapiens, UniProt O95342); test: BSEP inhibitor investigation; format: in vitro ADME
T1 construct: host or cells: membrane vesicles ('Membrane capsule'), BSEP versus NC control, with ATP or AMP
T1 sequence (O95342 whole entry): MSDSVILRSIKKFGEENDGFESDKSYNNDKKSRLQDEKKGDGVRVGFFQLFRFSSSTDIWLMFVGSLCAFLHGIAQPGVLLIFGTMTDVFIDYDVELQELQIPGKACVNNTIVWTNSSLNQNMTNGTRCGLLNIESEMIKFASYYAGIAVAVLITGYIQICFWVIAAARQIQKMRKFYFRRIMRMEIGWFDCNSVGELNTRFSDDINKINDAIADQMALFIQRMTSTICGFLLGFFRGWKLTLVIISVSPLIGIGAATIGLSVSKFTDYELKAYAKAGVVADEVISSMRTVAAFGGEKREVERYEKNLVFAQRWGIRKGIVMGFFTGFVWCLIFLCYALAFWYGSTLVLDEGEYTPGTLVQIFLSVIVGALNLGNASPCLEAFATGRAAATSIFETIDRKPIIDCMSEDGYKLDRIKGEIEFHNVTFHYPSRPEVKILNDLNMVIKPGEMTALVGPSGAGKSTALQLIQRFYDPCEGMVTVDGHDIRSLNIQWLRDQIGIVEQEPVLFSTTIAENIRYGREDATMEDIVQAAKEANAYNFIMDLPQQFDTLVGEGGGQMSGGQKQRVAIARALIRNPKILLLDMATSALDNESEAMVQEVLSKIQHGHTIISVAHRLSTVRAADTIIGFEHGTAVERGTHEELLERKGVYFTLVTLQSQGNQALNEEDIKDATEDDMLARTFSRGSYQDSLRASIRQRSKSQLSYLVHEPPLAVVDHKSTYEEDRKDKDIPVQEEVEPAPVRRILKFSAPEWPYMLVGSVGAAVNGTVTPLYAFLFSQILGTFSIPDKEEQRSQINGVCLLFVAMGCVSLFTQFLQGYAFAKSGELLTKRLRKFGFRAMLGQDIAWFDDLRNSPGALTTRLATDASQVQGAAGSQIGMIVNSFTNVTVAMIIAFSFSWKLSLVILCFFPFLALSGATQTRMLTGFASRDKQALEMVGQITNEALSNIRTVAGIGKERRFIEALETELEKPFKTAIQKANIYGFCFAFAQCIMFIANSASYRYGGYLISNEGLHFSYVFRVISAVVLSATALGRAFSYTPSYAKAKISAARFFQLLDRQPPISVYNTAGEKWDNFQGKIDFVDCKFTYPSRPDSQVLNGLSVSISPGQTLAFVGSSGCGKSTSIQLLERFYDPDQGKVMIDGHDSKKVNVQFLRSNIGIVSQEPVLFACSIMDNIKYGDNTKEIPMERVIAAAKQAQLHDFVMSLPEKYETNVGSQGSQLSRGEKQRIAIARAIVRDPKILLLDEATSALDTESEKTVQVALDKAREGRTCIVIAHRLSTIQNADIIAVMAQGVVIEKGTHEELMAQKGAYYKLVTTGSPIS

[2] = tested on: phosphorylation of ALK, AKT, ERK, STAT3 in NCI-H3122 cells; test: Western blot of ALK and downstream signaling phosphorylation; format: cell-based, human; settings: 2 h incubation
Protocol: In general, the cells were exposed to the drug and were harvested for western blot analysis. SDS-PAGE was used to separate the proteins of interest, which were then transferred to a nitrocellulose (NC) filtration membrane and soaked in a blocking solution [5% non-fat dry milk in tris-buffered saline with Tween 20 (TBST)] for 1 h at room temperature. Thereafter, the membrane was probed overnight with primary antibodies at 4℃ and washed three times with TBST. The corresponding secondary antibody diluent was added, incubated at room temperature for 1 h, and washed 3 times with TBST. After adding the enhanced chemiluminescence developer to the NC filtration membrane, it is developed in the imaging system (ChemiDoc™ XRS^+, BIO-RAD). See Supplementary Table 2 for details of the antibodies used.

OATP1B1 = biological target: T2, OATP1B1 (Homo sapiens, UniProt Q9Y6L6); test: Uptake substrate investigation in HEK293 cells expressing transporter; format: in vitro ADME; settings: for Ratio of uptake transit activity / Uptake transport activity, Net value: OATP1B1-293 vs MOCK293
T2 construct: No ESH6G27; host or cells: HEK293
T2 sequence (Q9Y6L6 1-691): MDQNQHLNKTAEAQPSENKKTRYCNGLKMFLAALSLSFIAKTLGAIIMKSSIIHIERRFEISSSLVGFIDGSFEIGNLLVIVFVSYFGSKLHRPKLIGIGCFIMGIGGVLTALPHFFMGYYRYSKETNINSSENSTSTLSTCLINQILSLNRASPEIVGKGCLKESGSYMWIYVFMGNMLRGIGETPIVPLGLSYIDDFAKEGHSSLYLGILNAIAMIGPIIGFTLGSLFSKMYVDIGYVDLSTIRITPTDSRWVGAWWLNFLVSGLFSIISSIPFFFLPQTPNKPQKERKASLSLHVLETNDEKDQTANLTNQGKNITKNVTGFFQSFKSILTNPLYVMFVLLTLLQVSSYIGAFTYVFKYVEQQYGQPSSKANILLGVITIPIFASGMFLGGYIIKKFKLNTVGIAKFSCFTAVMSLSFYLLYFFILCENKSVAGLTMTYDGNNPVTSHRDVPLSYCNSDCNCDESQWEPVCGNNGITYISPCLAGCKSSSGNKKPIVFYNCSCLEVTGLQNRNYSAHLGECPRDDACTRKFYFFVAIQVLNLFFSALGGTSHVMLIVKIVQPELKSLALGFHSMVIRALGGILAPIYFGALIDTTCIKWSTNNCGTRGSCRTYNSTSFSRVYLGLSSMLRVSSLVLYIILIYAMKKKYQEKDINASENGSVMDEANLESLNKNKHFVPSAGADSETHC
Description: (§1) The engineered NIH-3T3 (CD74-ROS1 fusion gene) cells was obtained from Nanjing GenScript Biotechnology Co., Ltd. The engineered Ba/F3 (SLC34A2-ROS1 fusion gene) cell line was obtained from Kyinno Biotechnology (Beijing) Co., Ltd. The HCC-78 (SLC34A2-ROS1 fusion gene) cell line was purchased from Shanghai Hongshun Biotechnology Co., Ltd. The engineered NIH-3T3 (CD74-ROS1 fusion gene) cells was obtained from Nanjing GenScript Biotechnology Co., Ltd. The engineered HEK293 cell lines with OATP1B1 (Lot. No ESH6G27), OATP1B3 (Lot. No ESH7G27), OCT2 (Lot. No ESH9G27), OAT1 (Lot. No ESHCG27), OAT3 (Lot. […] No ESHDG27) were purchased from GenoMembrane and validated using the specific substrate for each transporter. All cells were cultured at 37℃ in a 5% CO2 atmosphere. Cell culture reagents were obtained from Life Technologies, Inc. See Supplemental Table 1 for details on the source of the cell lines and the media used.

MATE2K = biological target: T3, MATE2K (Homo sapiens, UniProt Q86VL8); format: in vitro ADME
T3 construct: No ESHDG27; host or cells: HEK293
T3 sequence (Q86VL8 1-566 isoform Q86VL8-3): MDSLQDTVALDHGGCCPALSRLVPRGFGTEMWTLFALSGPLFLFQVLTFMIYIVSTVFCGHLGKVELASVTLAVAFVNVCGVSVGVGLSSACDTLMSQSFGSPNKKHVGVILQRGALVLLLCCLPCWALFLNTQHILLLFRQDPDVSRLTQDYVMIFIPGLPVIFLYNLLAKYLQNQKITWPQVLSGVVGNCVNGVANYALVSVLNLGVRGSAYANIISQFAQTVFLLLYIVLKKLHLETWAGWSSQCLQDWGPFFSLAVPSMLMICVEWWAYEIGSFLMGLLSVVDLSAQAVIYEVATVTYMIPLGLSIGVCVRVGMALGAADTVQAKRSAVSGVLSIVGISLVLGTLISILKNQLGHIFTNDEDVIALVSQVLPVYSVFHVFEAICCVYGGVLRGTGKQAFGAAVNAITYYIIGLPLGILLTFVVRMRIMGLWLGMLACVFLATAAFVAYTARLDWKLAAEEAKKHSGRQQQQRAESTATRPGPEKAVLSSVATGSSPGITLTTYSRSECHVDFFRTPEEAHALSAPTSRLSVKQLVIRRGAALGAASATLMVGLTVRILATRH

MATE1 = biological target: T4, MATE1 (Homo sapiens, UniProt Q96FL8)
T4 sequence (Q96FL8 1-570): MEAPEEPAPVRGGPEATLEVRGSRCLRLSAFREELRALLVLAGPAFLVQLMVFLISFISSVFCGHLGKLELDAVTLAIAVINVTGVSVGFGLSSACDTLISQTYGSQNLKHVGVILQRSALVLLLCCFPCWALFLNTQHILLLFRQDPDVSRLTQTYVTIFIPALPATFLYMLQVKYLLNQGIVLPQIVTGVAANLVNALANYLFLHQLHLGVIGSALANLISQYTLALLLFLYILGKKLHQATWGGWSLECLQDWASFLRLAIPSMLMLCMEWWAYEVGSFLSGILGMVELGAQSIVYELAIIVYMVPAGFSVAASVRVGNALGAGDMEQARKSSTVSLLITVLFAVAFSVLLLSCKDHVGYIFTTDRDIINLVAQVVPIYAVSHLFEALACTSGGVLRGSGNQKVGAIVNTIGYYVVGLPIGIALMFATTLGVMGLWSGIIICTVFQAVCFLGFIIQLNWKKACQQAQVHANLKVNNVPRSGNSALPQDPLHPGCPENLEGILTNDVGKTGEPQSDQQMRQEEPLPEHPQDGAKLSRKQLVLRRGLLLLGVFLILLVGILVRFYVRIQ
Protocol: Using a stably transfected cell line of HEK293 expressing transporter OATP1B1, OATP1B3 or OCT2, formal substrate investigation tests were performed for three concentration gradients (30 µM, 3 µM, 0.3 µM) of iruplinalkib.

OAT1 [3] = test: Uptake substrate investigation in HEK293 cells expressing transporter
Description: as §1

EGFR^L858R/T790M = EGFR^L858R/T790M (Homo sapiens, UniProt P00533, L858R/T790M); test: HTRF kinase activity assay
Sequence of EGFR^L858R/T790M (P00533 25-1210 T790M/L858R): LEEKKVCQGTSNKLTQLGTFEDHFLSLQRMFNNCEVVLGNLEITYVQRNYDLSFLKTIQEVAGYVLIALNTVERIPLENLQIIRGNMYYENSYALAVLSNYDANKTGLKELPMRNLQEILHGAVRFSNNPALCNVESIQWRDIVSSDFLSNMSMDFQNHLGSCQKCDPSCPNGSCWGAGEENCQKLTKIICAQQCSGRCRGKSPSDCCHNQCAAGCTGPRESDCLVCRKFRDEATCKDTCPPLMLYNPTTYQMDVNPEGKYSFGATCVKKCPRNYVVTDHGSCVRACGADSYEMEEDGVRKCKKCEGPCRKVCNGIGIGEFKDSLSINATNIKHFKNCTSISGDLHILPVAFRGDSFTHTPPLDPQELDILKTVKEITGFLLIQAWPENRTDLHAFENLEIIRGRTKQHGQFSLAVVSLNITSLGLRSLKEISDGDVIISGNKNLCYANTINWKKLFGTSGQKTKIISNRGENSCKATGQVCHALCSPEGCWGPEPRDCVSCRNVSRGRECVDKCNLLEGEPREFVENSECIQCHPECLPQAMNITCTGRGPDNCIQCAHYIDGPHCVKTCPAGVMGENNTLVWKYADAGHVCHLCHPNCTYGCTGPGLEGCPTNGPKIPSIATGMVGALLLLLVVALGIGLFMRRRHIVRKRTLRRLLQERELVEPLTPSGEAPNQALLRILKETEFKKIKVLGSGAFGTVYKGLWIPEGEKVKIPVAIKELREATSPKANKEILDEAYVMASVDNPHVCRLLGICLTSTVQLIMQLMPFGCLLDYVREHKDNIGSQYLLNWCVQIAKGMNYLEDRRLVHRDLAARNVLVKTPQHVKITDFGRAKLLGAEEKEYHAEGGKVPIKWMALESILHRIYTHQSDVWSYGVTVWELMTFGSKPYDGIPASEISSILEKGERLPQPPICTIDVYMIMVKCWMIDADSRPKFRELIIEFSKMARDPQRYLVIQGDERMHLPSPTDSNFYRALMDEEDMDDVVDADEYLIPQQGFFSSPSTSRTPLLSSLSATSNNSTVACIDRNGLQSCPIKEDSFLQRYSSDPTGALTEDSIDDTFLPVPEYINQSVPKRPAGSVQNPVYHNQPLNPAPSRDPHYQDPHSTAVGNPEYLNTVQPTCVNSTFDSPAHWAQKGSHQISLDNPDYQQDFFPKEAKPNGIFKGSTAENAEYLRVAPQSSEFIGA
Protocol: After the kinase proteins, Ulight-peptide species, adenosine triphosphate (ATP), and compound were mixed, the reaction was carried out at room temperature. Reactions were quenched by the addition of ethylene diamine tetraacetic acid buffer containing Eu antibody and XL665-streptavidin at the indicated time points. Plate reading was performed using an Envision (Perkin Elmer, MA, USA) multifunctional microplate reader.

[4] = human, HEK293 cells expressing OAT1, probe ATV, 1 μM, read-out: Inhibition rate
[5] = MOCK293, test substrate 10 μM, no inhibitor, pre-test
[6] = OATP1B1-293, test substrate 10 μM, no inhibitor, pre-test
[7] = test substrate 10 μM, no inhibitor, pre-test
[8] = MOCK293, test substrate 10 μM, no inhibitor, OAT1 pre-test
[9] = OATP1B1-293 (so in the source), test substrate 10 μM, no inhibitor, OAT1 pre-test
[10] = transporter cells vs MOCK293, test substrate 10 μM, no inhibitor, OAT1 pre-test

For `COc1cc(N2CCC3(CCN(C)CC3)CC2)ccc1Nc1ncc(Cl)c(Nc2ccccc2P(C)(C)=O)n1` [Iruplinalkib], the “inhibitor of OAT1” value (OAT1 [1]; HEK293) was “can not be its inhibitor”, the inhibition at 0.5 μM (OAT1 [1]; [4]) was 26.7% and the inhibition at 5 μM (OAT1 [1]; [4]) was 22.5%. For the same compound, the inhibition at 50 μM (OAT1 [1]; [4]) was 31.9%, the “efflux inhibitor of BSEP” value (BSEP) was “not an efflux inhibitor” and the inhibition at 0.1 μM (BSEP; BSEP membrane capsules (membrane vesicles), ATP vs AMP, probe TCA, BSEP, substrate TCA 10 μM, inhibitor 0.1 μM, read-out: Inhibition rate) was -25.4%. It also gave an inhibition at 0.3 μM (BSEP; BSEP membrane capsules (membrane vesicles), ATP vs AMP, probe TCA, BSEP, substrate TCA 10 μM, inhibitor 0.3 μM, read-out: Inhibition rate) of -10.7%, an inhibition at 1 μM (BSEP; BSEP membrane capsules (membrane vesicles), ATP vs AMP, probe TCA, BSEP, substrate TCA 10 μM, inhibitor 1 μM, read-out: Inhibition rate) of -26.7% and an inhibition at 3 μM (BSEP; BSEP membrane capsules (membrane vesicles), ATP vs AMP, probe TCA, BSEP, substrate TCA 10 μM, inhibitor 3 μM, read-out: Inhibition rate) of -11.8%. The inhibition at 10 µM (BSEP; BSEP membrane capsules (membrane vesicles), ATP vs AMP, probe TCA, BSEP, substrate TCA 10 μM, inhibitor 10 μM, read-out: Inhibition rate) was -10.5%, the inhibition at 30 μM (BSEP; BSEP membrane capsules (membrane vesicles), ATP vs AMP, probe TCA, BSEP, substrate TCA 10 μM, inhibitor 30 μM, read-out: Inhibition rate) was -0.09% and the inhibition at 100 μM (BSEP; BSEP membrane capsules (membrane vesicles), ATP vs AMP, probe TCA, BSEP, substrate TCA 10 μM, inhibitor 100 μM, read-out: Inhibition rate) was 26.3%. For the same compound, the “phosphorylation level of STAT3” value [2] was “not STAT3”, the “phosphorylation levels of ALK, AKT, ERK” value [2] was “reduced” and the “uptake transport activity ratio, OATP1B1” value (OATP1B1; 30 µM, 3 µM, 0.3 µM, HEK293) was “less than two”. For the same compound, the “uptake substrate of OATP1B1” value (OATP1B1; HEK293) was “not an uptake substrate”, the “Uptake transport activity, Mean” value (OATP1B1; MOCK293 (OATP1B1 set), 0.3 μM, Suppl. Table 11) was 7.468 pmol/mg protein/min and the “Uptake transport activity, Mean” value (OATP1B1; MOCK293 (OATP1B1 set), 3 μM, Suppl. Table 11) was 54.18 pmol/mg protein/min. For the same compound, the “Uptake transport activity, Mean” value (OATP1B1; MOCK293 (OATP1B1 set), 30 μM, Suppl. Table 11) was 601.2 pmol/mg protein/min, the “Uptake transport activity, Mean” value (OATP1B1; [5]) was 102.0 pmol/mg protein/min and the “Uptake transport activity, Repeat 1 / Repeat 2” value (OATP1B1; [5]) was 100.4 pmol/mg protein/min and 103.6 pmol/mg protein/min. For the same compound, the “Uptake transport activity, Mean” value (OATP1B1; OATP1B1-293, 0.3 μM, Suppl. Table 11) was 8.227 pmol/mg protein/min, the “Uptake transport activity, Mean” value (OATP1B1; OATP1B1-293, 3 μM, Suppl. Table 11) was 46.74 pmol/mg protein/min and the “Uptake transport activity, Mean” value (OATP1B1; OATP1B1-293, 30 μM, Suppl. Table 11) was 564.7 pmol/mg protein/min. For the same compound, the “Uptake transport activity, Mean” value (OATP1B1; [6]) was 55.08 pmol/mg protein/min, the “Uptake transport activity, Repeat 1 / Repeat 2” value (OATP1B1; [6]) was 50.74 pmol/mg protein/min and 59.41 pmol/mg protein/min and the “Ratio of uptake transit activity” value (OATP1B1; 0.3 μM, Suppl. Table 11) was 1.10. For the same compound, the “Uptake transport activity, Net value” (OATP1B1; 0.3 μM, Suppl. Table 11) was 0.759 pmol/mg protein/min, the “Ratio of uptake transit activity” value (OATP1B1; 3 μM, Suppl. Table 11) was 0.86 and the “Uptake transport activity, Net value” (OATP1B1; 3 μM, Suppl. Table 11) was -7.440 pmol/mg protein/min. For the same compound, the “Ratio of uptake transit activity” value (OATP1B1; 30 μM, Suppl. Table 11) was 0.94, the “Uptake transport activity, Net value” (OATP1B1; 30 μM, Suppl. Table 11) was -36.47 pmol/mg protein/min and the “Ratio of uptake transit activity” value (OATP1B1; [7]) was 0.54. For the same compound, the “Uptake transport activity, Net value” (OATP1B1; [7]) was -46.9 pmol/mg protein/min, the “inhibition of MATE2K” value (MATE2K) was “stronger inhibitor” and the “Uptake transport activity, Net value” (MATE1; 0.5 μM) was 532.9 pmol/mg protein/min. The “Uptake transport activity, Net value” (MATE1; 5 μM) was 55.01 pmol/mg protein/min, the “Uptake transport activity, Net value” (MATE1; 50 μM) was -114.5 pmol/mg protein/min and the “uptake substrate of OAT1” value (OAT1 [3]; HEK293) was “not an uptake substrate”. For the same compound, the “Uptake transport activity, Mean” value (OAT1 [3]; [8]) was 313.6 pmol/mg protein/min, the “Uptake transport activity, Repeat 1 / Repeat 2” value (OAT1 [3]; [8]) was 302.7 pmol/mg protein/min and 324.5 pmol/mg protein/min and the “Uptake transport activity, Mean” value (OAT1 [3]; [9]) was 289.1 pmol/mg protein/min. For the same compound, the “Uptake transport activity, Repeat 1 / Repeat 2” value (OAT1 [3]; [9]) was 285.7 pmol/mg protein/min and 292.5 pmol/mg protein/min, the “Ratio of uptake transit activity” value (OAT1 [3]; [10]) was 0.92 and the “Uptake transport activity, Net value” (OAT1 [3]; [10]) was -24.51 pmol/mg protein/min. It also gave an IC50 (EGFR^L858R/T790M) of 16.7 ± 8.11 nM.

— PMC10140010 (Investigational New Drugs, 2023)
